Values of other authors as cited in publication PMC11768433 (Viruses, 2024).
Where two headings read alike, the source gives them in different places.

Key:
[1] = tested on: PBMC
[2] = tested on: TZM-bl cell; set-up: method as in Ref.30089693; conditions: ref Ref.30089693
[3] = tested on: MT-4 cell; set-up: method as in Ref.30089693; conditions: ref Ref.30089693
[4] = tested on: Huh7.5.1 cells; set-up: method as in Ref.22378192; conditions: ref Ref.22378192
[5] = tested on: P4-CCR5 cells; set-up: method as in Ref.15780876; conditions: ref Ref.15780876
[6] = tested on: P4 cells; set-up: method as in Ref.12054767; conditions: MTT assay, peptide concentrations higher than 100 μM, ref Ref.12054767
[7] = tested on: HIV-1; set-up: method as in Ref.12054767; conditions: up to 100 μM; ref Ref.12054767
[8] = tested on: Vero cells; set-up: method as in Ref.35055066; conditions: ref Ref.35055066
[9] = tested on: Herpes simplex virus type 1(HSV-1); set-up: method as in Ref.18572274; conditions: HSV-1 entry, Vero cells, at 250μM; ref Ref.18572274
[10] = tested on: Vero cells; set-up: method as in Ref.18572274; conditions: up to 500 μM, ref Ref.18572274
[11] = tested on: Vero E6 cells; set-up: method as in Ref.35663971; conditions: ref Ref.35663971
[12] = tested on: SARS-CoV-2; set-up: method as in Ref.35663971; conditions: SARS-CoV-2, Huh7 cells, at 10 μM; ref Ref.35663971
[13] = tested on: Dengue virus 2(DENV2); set-up: method as in Ref.35663971; conditions: DENV2, Huh7 cells, at 10 μM; ref Ref.35663971
[14] = tested on: HSV; set-up: method as in Ref.35663971; conditions: Huh7 cells, at 10 μM, ref Ref.35663971
[15] = tested on: Human PBMC; set-up: method as in Ref.30867304; conditions: ref Ref.30867304
[16] = tested on: MT-4 cells; set-up: method as in Ref.30867304; conditions: ref Ref.30867304
[17] = tested on: C8166 cells; set-up: method as in Ref.30867304; conditions: ref Ref.30867304
[18] = tested on: TZM-bl cells; set-up: method as in Ref.30867304; conditions: ref Ref.30867304
[19] = tested on: U937 cells; set-up: method as in Ref.30867304; conditions: U937 cells (cell text ends after μ); ref Ref.30867304
[20] = tested on: HSV-2; set-up: method as in Ref.35216177; conditions: HSV-2 replication, Vero cells; ref Ref.35216177
[21] = tested on: HCoV-OC43; set-up: method as in Ref.35216177; conditions: HCoV-OC43 replication, Vero cells; ref Ref.35216177
[22] = tested on: SARS-CoV-2; set-up: method as in Ref.35216177; conditions: SARS-CoV-2 replication, Vero cells; ref Ref.35216177
[23] = tested on: HSV-1; set-up: method as in Ref.35216177; conditions: HSV-1 replication, Vero cells; ref Ref.35216177
[24] = tested on: Vero cells; set-up: method as in Ref.35216177; conditions: ref Ref.35216177
[25] = tested on: HCoV-229E; set-up: method as in Ref.35216177; conditions: HCoV-229E replication, Vero cells; ref Ref.35216177
[26] = tested on: HPIV-3; set-up: method as in Ref.35216177; conditions: HPIV-3 replication, Vero cells; ref Ref.35216177
[27] = tested on: MDCK cells; set-up: method as in Ref.17005658; conditions: up to 50μM, ref Ref.17005658
[28] = tested on: Huh-7 cells; set-up: method as in Ref.20156485; conditions: ref Ref.20156485
[29] = tested on: hepatitis C virus(HCVpp); set-up: method as in Ref.20156485; conditions: Huh-7 human hepatoma cells, ref Ref.20156485

For IEELIKKSEEQQKKNEEELKKLEX [DRAVPe00656], the CC50 ([1]; PBMC, ref Ref.30089693) is given as 46.43 µM, the CC50 [2] is given as 193.63 µM and the CC50 [3] is given as 164.47 µM.

In the case of “YTSLIHSLIEESQNQQEKNEQELLELDX [DRAVPe00782]”, the CC50 ([1]; PBMC, ref Ref.30089693) is listed as 212.6 µM, the CC50 [2] is listed as 800.8 µM and the CC50 [3] is listed as 366.3 µM.

For “MANAGLQLLGFILAFLGW [DRAVPe01317, DRAVP database peptide, target HCV]”, the CC50 [4] is given as ~200 Μm.

In the case of “ALWMTLLKKVLKAAAKAALNAVLVGANA [DRAVPe01956, DRAVP database peptide, target HIV]”, the CC50 [5] is listed as 5.6 µM.

In the case of “ALWKTLLKKVLKAAAK [DRAVPe01957, DRAVP database peptide, target HIV]”, the CC50 [5] is given as “[Ref.15780876]P4-CCR5 cells:CC50>100 μM”.

For “QLLIRMI [DRAVPe00092, DRAVP database peptide, target HIV-1 integrase]”, the “decrease of cell viability” value [6] is listed as about 5% and the “inhibition of HIV-1 infection” value [7] is listed as “no inhibition”.

For “AIGSILGALAKGLPTLISWIKNR [DRAVPe00469, DRAVP database peptide AR-23]”, the CC50 [8] is listed as 25 µM.

In the case of AAHLIDALYAEFLGGRVLTT [DRAVPe01423], the inhibition [9] is given as 60% and the “cytotoxicity” value [10] is given as “[Ref.18572274]No cytotoxicity against Vero cells up to 500 μM”.

For “MGRFKRFRKKFKKLFKKLS [DRAVPe01948, DRAVP database peptide bomidin]”, the CC50 [11] is given as 169.6 µM, the inhibition [12] is given as 80% and the inhibition [13] is given as 50%. For the same substance, the inhibition [14] was 50%.

In the case of “YTSLIEELIKKSEEQQKKNEEELKKLEX [DRAVPe00783]”, the CC50 [1] is listed as 40.01 µM, the CC50 [2] is listed as 106.4 µM and the CC50 [3] is listed as 138.37 µM.

For “AAHLIDALYAEFLGGRVLTTPVVHRALFYASAVLRQPFLAGVPSA [DRAVPe01422]”, the “cytotoxicity” value [10] is listed as “[Ref.18572274]No cytotoxicity against Vero cells up to 500 μM”.

For “WEQKIEELLKKAEEQQKKNEEELKKLEKX [DRAVPe00787]”, the CC50 [15] is given as 40.27 µM, the CC50 [16] is given as 19.65 µM and the CC50 [17] is given as 19.19 µM. For the same substance, the CC50 [18] was 12.34 µM and the CC50 [19] was 9.97 μ.

For “FVPWFSKFlkRIL [DRAVPe00384, DRAVP database entry, TL peptide]”, the IC90 [20] is given as 12.5 µM, the IC90 [21] is given as 29.2 µM and the IC90 [22] is given as 25.3 µM. For the same substance, the IC90 [23] was 12.7 µM, the CC50 [24] was 45.92 µM and the IC90 [25] was 50 µM. The IC90 [26] was over 50 µM.

For “FVPWFSKFlKRIL [DRAVPe00383, DRAVP database entry, TL peptide]”, the IC90 [20] is listed as 7.99 µM, the IC90 [21] is listed as 16.3 µM and the IC90 [22] is listed as 12.9 µM. The IC90 [23] was 10.5 µM, the CC50 [24] was 22.32 µM and the IC90 [25] was 50 µM. For the same substance, the IC90 [26] was over 50 µM.

In the case of GLASTLTRWAHYNALIRAF [DRAVPe01424], the “cytotoxicity” value [10] is listed as “[Ref.18572274]No cytotoxicity against Vero cells up to 500 μM”.

For RRKKAAVALLPAVLLALLAP [DRAVPe01891], the “cytotoxicity” value [27] is given as “[Ref.17005658]No cytotoxicity against MDCK cells up to 50μM”.

In the case of VSFAIKWEYVLLLFLL [DRAVPe01483], the “cytotoxicity” value [28] is given as “[Ref.20156485]No cytotoxicity against Huh-7 cells” and the EC90 [29] is given as 14 ± 12 µM.
